Patent publication US20230085307A1, “PYRIDAZINONE COMPOUND AND HERBICIDE” (NISSAN CHEMICAL CORPORATION, priority 2019, published 2023)

What was measured:
[1] = test system: wild oat; assay: Test Example 5: herbicidal effect by foliage application, plastic box (Table 20, symbol I); type: in vivo, wild oat (Avena fatua); details: foliage application, three weeks after application
Outline: (§1)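 Plants were sown into sterilized diluvial soil under about 1.5 cm cover and kept in a greenhouse at 25° C. to 30° C. Fourteen days on, foliage received an even spray of the diluted emulsion. Herbicidal or crop effect was judged three weeks afterwards.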

[2] = test system: barnyard grass; assay: Test Example 5: herbicidal effect by foliage application, plastic box (Table 20, symbol H); type: in vivo, barnyard grass (Echinochloa crus-galli); details: foliage application, three weeks after application
Outline: as §1

[3] = test system: windgrass; assay: Test Example 5: herbicidal effect by foliage application, plastic box (Table 20, symbol L); type: in vivo, windgrass (Apera spica-venti); details: foliage application, three weeks after application
Outline: as §1

[4] = test system: lambsquarters; assay: Test Example 5: herbicidal effect by foliage application, plastic box (Table 20, symbol O); type: in vivo, lambsquarters (Chenopodium album); details: foliage application, three weeks after application
Outline: as §1

[5] = test system: false cleavers; assay: Test Example 5: herbicidal effect by foliage application, plastic box (Table 20, symbol Q); type: in vivo, false cleavers (Galium spurium); details: foliage application, three weeks after application
Outline: as §1

[6] = test system: persian speedwell; assay: Test Example 5: herbicidal effect by foliage application, plastic box (Table 20, symbol R); type: in vivo, Persian speedwell (Veronica persica); details: foliage application, three weeks after application
Outline: as §1

[7] = test system: southern crabgrass; assay: Test Example 5: herbicidal effect by foliage application, plastic box (Table 20, symbol F); type: in vivo, southern crabgrass (Digitaria ciliaris); details: foliage application, three weeks after application
Outline: as §1

[8] = test system: blackgrass; assay: Test Example 5: herbicidal effect by foliage application, plastic box (Table 20, symbol J); type: in vivo, blackgrass (Alopecurus myosuroides); details: foliage application, three weeks after application
Outline: as §1

[9] = test system: velvetleaf; assay: Test Example 5: herbicidal effect by foliage application, plastic box (Table 20, symbol M); type: in vivo, velvetleaf (Abutilon theophrasti); details: foliage application, three weeks after application
Outline: as §1

[10] = test system: green foxtail; assay: Test Example 5: herbicidal effect by foliage application, plastic box (Table 20, symbol G); type: in vivo, green foxtail (Setaria viridis); details: foliage application, three weeks after application
Outline: as §1

[11] = test system: chickweed; assay: Test Example 5: herbicidal effect by foliage application, plastic box (Table 20, symbol P); type: in vivo, common chickweed (Stellaria media); details: foliage application, three weeks after application
Outline: as §1

[12] = test system: rice flat sedge; assay: Test Example 3: herbicidal effect by foliage application, Wagner pot (Table 18, symbol E); type: in vivo, rice flat sedge (Cyperus iria)
Outline: (§2)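 Plants were sown in alluvial soil held under 0.1–0.5 cm standing water and grown 14 days in a greenhouse at 25–30 °C. An emulsifiable formulation, water-diluted to the set dose, was then sprayed onto the foliage, and effects were scored three weeks later using previously defined criteria.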

[13] = test system: Chinese sprangletop; assay: Test Example 3: herbicidal effect by foliage application, Wagner pot (Table 18, symbol D); type: in vivo, chinese sprangletop (Leptochloa chinensis)
Outline: as §2

[14] = test system: Italian ryegrass; assay: Test Example 5: herbicidal effect by foliage application, plastic box (Table 20, symbol K); type: in vivo, Italian ryegrass (Lolium multiflorum); details: foliage application, three weeks after application
Outline: as §1

[15] = test system: redroot pigweed; assay: Test Example 5: herbicidal effect by foliage application, plastic box (Table 20, symbol N); type: in vivo, redroot pigweed (Amaranthus retroflexus); details: foliage application, three weeks after application
Outline: as §1

[16] = test system: barnyard grass; assay: Test Example 3: herbicidal effect by foliage application, Wagner pot (Table 18, symbol H); type: in vivo, barnyard grass (Echinochloa crus-galli)
Outline: as §2

SMILES | herbicidal effect grade, I: wild oat ([1]; 320 g/ha) | herbicidal effect grade, H: barnyard grass ([2]; 320 g/ha) | herbicidal effect grade, L: windgrass ([3]; 320 g/ha) | herbicidal effect grade, O: lambsquarters ([4]; 320 g/ha) | herbicidal effect grade, Q: false cleavers ([5]; 320 g/ha) | herbicidal effect grade, R: persian speedwell ([6]; 320 g/ha) | herbicidal effect grade, F: southern crabgrass ([7]; 320 g/ha) | herbicidal effect grade, J: blackgrass ([8]; 320 g/ha) | herbicidal effect grade, M: velvetleaf ([9]; 320 g/ha) | herbicidal effect grade, G: green foxtail ([10]; 320 g/ha) | herbicidal effect grade, P: chickweed ([11]; 320 g/ha) | herbicidal effect on E (rice flat sedge), rating 0-5 ([12]; 320 g/ha) | herbicidal effect on D (Chinese sprangletop), rating 0-5 ([13]; 320 g/ha) | herbicidal effect grade, K: Italian ryegrass ([14]; 320 g/ha) | herbicidal effect grade, N: redroot pigweed ([15]; 320 g/ha) | herbicidal effect on H (barnyard grass), rating 0-5 ([16]; 320 g/ha) | further results
Cc1nn(C)c(=O)c(-c2c(-c3ccccc3Oc3ccccc3)sc3ccccc23)c1O [1-033] | 0 (Herbicidal rate of 5% or less (almost no effect)) | 2 (Herbicidal rate of 20% or more and less than 40%) | 0 (Herbicidal rate of 5% or less (almost no effect)) | 0 (Herbicidal rate of 5% or less (almost no effect)) | 4 (Herbicidal rate of 70% or more and less than 90%) | 3 (Herbicidal rate of 40% or more and less than 70%) | 3 (Herbicidal rate of 40% or more and less than 70%) | 0 (Herbicidal rate of 5% or less (almost no effect)) | 0 (Herbicidal rate of 5% or less (almost no effect)) | 0 (Herbicidal rate of 5% or less (almost no effect)) | 1 (Herbicidal rate of 5% or more and less than 20%) | 1 (Herbicidal rate of 5% or more and less than 20%) | 0 (Herbicidal rate of 5% or less (almost no effect)) | 0 (Herbicidal rate of 5% or less (almost no effect)) | 0 (Herbicidal rate of 5% or less (almost no effect)) | 1 (Herbicidal rate of 5% or more and less than 20%) | –
CCS(=O)(=O)c1ccccc1-c1sc2ccccc2c1-c1c(O)c(C)nn(C)c1=O [1-038] | – | – | – | – | – | – | – | – | – | – | – | – | – | – | – | – | herbicidal effect grade, I: wild oat ([1]; 123 g/ha): 0 (Herbicidal rate of 5% or less (almost no effect)); herbicidal effect grade, H: barnyard grass ([2]; 123 g/ha): 0 (Herbicidal rate of 5% or less (almost no effect)); herbicidal effect grade, L: windgrass ([3]; 123 g/ha): 0 (Herbicidal rate of 5% or less (almost no effect)); herbicidal effect grade, O: lambsquarters ([4]; 123 g/ha): 0 (Herbicidal rate of 5% or less (almost no effect)); herbicidal effect grade, Q: false cleavers ([5]; 123 g/ha): 3 (Herbicidal rate of 40% or more and less than 70%); herbicidal effect grade, R: persian speedwell ([6]; 123 g/ha): 0 (Herbicidal rate of 5% or less (almost no effect)); herbicidal effect grade, F: southern crabgrass ([7]; 123 g/ha): 0 (Herbicidal rate of 5% or less (almost no effect)); herbicidal effect grade, J: blackgrass ([8]; 123 g/ha): 0 (Herbicidal rate of 5% or less (almost no effect)); herbicidal effect grade, M: velvetleaf ([9]; 123 g/ha): 0 (Herbicidal rate of 5% or less (almost no effect)); herbicidal effect grade, G: green foxtail ([10]; 123 g/ha): 0 (Herbicidal rate of 5% or less (almost no effect)); herbicidal effect grade, P: chickweed ([11]; 123 g/ha): 5 (Herbicidal rate of 90% or more (almost completely withered)); herbicidal effect on E (rice flat sedge), rating 0-5 ([12]; 123 g/ha): 3 (Herbicidal rate of 40% or more and less than 70%); herbicidal effect on D (Chinese sprangletop), rating 0-5 ([13]; 123 g/ha): 4 (Herbicidal rate of 70% or more and less than 90%); herbicidal effect grade, K: Italian ryegrass ([14]; 123 g/ha): 0 (Herbicidal rate of 5% or less (almost no effect)); herbicidal effect grade, N: redroot pigweed ([15]; 123 g/ha): 0 (Herbicidal rate of 5% or less (almost no effect)); herbicidal effect on H (barnyard grass), rating 0-5 ([16]; 123 g/ha): 0 (Herbicidal rate of 5% or less (almost no effect))
Cc1nn(C)c(=O)c(-c2c(-c3ccc(N(C)C)cc3)sc3ccccc23)c1O [1-039] | – | – | – | – | – | – | – | – | – | – | – | – | – | – | – | – | herbicidal effect grade, I: wild oat ([1]; 295 g/ha): 0 (Herbicidal rate of 5% or less (almost no effect)); herbicidal effect grade, H: barnyard grass ([2]; 295 g/ha): 0 (Herbicidal rate of 5% or less (almost no effect)); herbicidal effect grade, L: windgrass ([3]; 295 g/ha): 0 (Herbicidal rate of 5% or less (almost no effect)); herbicidal effect grade, O: lambsquarters ([4]; 295 g/ha): 4 (Herbicidal rate of 70% or more and less than 90%); herbicidal effect grade, Q: false cleavers ([5]; 295 g/ha): 0 (Herbicidal rate of 5% or less (almost no effect)); herbicidal effect grade, R: persian speedwell ([6]; 295 g/ha): 5 (Herbicidal rate of 90% or more (almost completely withered)); herbicidal effect grade, F: southern crabgrass ([7]; 295 g/ha): 3 (Herbicidal rate of 40% or more and less than 70%); herbicidal effect grade, J: blackgrass ([8]; 295 g/ha): 1 (Herbicidal rate of 5% or more and less than 20%); herbicidal effect grade, M: velvetleaf ([9]; 295 g/ha): 3 (Herbicidal rate of 40% or more and less than 70%); herbicidal effect grade, G: green foxtail ([10]; 295 g/ha): 4 (Herbicidal rate of 70% or more and less than 90%); herbicidal effect grade, P: chickweed ([11]; 295 g/ha): 5 (Herbicidal rate of 90% or more (almost completely withered)); herbicidal effect on E (rice flat sedge), rating 0-5 ([12]; 295 g/ha): 3 (Herbicidal rate of 40% or more and less than 70%); herbicidal effect on D (Chinese sprangletop), rating 0-5 ([13]; 295 g/ha): 1 (Herbicidal rate of 5% or more and less than 20%); herbicidal effect grade, K: Italian ryegrass ([14]; 295 g/ha): 2 (Herbicidal rate of 20% or more and less than 40%); herbicidal effect grade, N: redroot pigweed ([15]; 295 g/ha): 5 (Herbicidal rate of 90% or more (almost completely withered)); herbicidal effect on H (barnyard grass), rating 0-5 ([16]; 295 g/ha): 3 (Herbicidal rate of 40% or more and less than 70%)
CCCC(=O)Oc1c(C)nn(C)c(=O)c1-c1c(-c2ccc(OC)cc2OC)sc2ccccc12 [1-071] | 0 (Herbicidal rate of 5% or less (almost no effect)) | 0 (Herbicidal rate of 5% or less (almost no effect)) | 0 (Herbicidal rate of 5% or less (almost no effect)) | 0 (Herbicidal rate of 5% or less (almost no effect)) | 0 (Herbicidal rate of 5% or less (almost no effect)) | 1 (Herbicidal rate of 5% or more and less than 20%) | 0 (Herbicidal rate of 5% or less (almost no effect)) | 0 (Herbicidal rate of 5% or less (almost no effect)) | 3 (Herbicidal rate of 40% or more and less than 70%) | 0 (Herbicidal rate of 5% or less (almost no effect)) | 2 (Herbicidal rate of 20% or more and less than 40%) | 0 (Herbicidal rate of 5% or less (almost no effect)) | 0 (Herbicidal rate of 5% or less (almost no effect)) | 0 (Herbicidal rate of 5% or less (almost no effect)) | 0 (Herbicidal rate of 5% or less (almost no effect)) | 2 (Herbicidal rate of 20% or more and less than 40%) | –
Cc1nn(C)c(=O)c(-c2c(-c3ccoc3)sc3ccccc23)c1O [1-081] | 0 (Herbicidal rate of 5% or less (almost no effect)) | 0 (Herbicidal rate of 5% or less (almost no effect)) | 0 (Herbicidal rate of 5% or less (almost no effect)) | 0 (Herbicidal rate of 5% or less (almost no effect)) | 2 (Herbicidal rate of 20% or more and less than 40%) | 4 (Herbicidal rate of 70% or more and less than 90%) | 0 (Herbicidal rate of 5% or less (almost no effect)) | 0 (Herbicidal rate of 5% or less (almost no effect)) | 3 (Herbicidal rate of 40% or more and less than 70%) | 0 (Herbicidal rate of 5% or less (almost no effect)) | 3 (Herbicidal rate of 40% or more and less than 70%) | 4 (Herbicidal rate of 70% or more and less than 90%) | 0 (Herbicidal rate of 5% or less (almost no effect)) | 3 (Herbicidal rate of 40% or more and less than 70%) | 2 (Herbicidal rate of 20% or more and less than 40%) | 3 (Herbicidal rate of 40% or more and less than 70%) | –
